The source of these data is a melting point compilation (Tetko et al.; mined from patent text by program, amines drawn as free bases though some values may be those of a salt).

For `COc1ccccc1C1(Cl)C(=O)Nc2ccc(C)c(Cl)c21` (configuration not stated), the melting point was 262 to 263 °C.
The figure for `CC(C)(C)CC(C)(C)NCC(=O)N1CC2C(C1)C2Nc1ncc2cc(-c3ccccc3Cl)c(=O)n(C3CC3)c2n1` (configuration not stated) is 218 to 220 °C.
`COc1cc2c(cc1OC)C(NCC(=O)O)CC2` (configuration not stated) returned a melting point of 213 to 216 °C.
With `CCC/C=C/c1ccc(C#CC(C)(C)O)cc1` the figure was 65 °C; with `COC(=O)Cc1c(OC)ccc2c1Oc1c(ccc(OC)c1C=NO)C2(C)C`, 234 to 236 °C.
The compound `CC=CCn1c(C)c(C)c2cnnc(NCc3ccc(F)cc3)c21` showed a melting point of 135 to 138 °C.
In turn, `COCCc1nnc(NC(=O)C2c3ccccc3Oc3ccccc32)o1` displayed a melting point of 105 to 106 °C.
With `Cc1ccc(C(=O)/C=C/c2c(-c3ccc(F)cc3)nc3sccn23)cc1C` the figure was 210 to 213 °C; with `Cc1c(Cc2ccc(C(C)C)cc2)c2c(c(C)c1NC(=O)CC(C)(C)C)C(=O)C(C)(C)O2`, 193 to 194 °C.
For `Cc1ccccc1NC(=NC#N)NC(NC(=O)CCCc1ccccc1)C(C)(C)C` (configuration not stated), the melting point was in the range of 153 to 154 °C.
The figure for `CC(=O)C1(OC(=O)CCl)CCC2C3CCC4=CC(=O)CCC4(C)C3CCC21C` (configuration not stated) is 134 to 135 °C; for `Cc1ccnc(NC(=O)C2CC2)c1[N+](=O)[O-]` it is 179 °C; for `CC(=O)CC(=O)N1N=C(c2ccc([N+](=O)[O-])cc2)c2cc3c(cc2CC1C)OCO3` (configuration not stated) it is 169 to 171 °C.
The figure for `c1ccc(-c2ccc(Nc3ncc(-c4ccccc4)s3)nc2)cc1` is 231 to 233 °C; for `CC(C)(C(=O)OCC(=O)c1ccccc1)n1c(=O)[nH]c2cccc(F)c2c1=O` it is 179 to 180 °C; for `O=c1ncc(Cl)cn1CC=CCl` it is 102 to 104 °C.
With `CC#CC1(O)CCC2C3CCC4=CC(=O)CCC4C3CCC21CC` (configuration not stated) the figure was 124 to 125 °C.
For `COC(=O)C=Cc1ccc(C=CC(=O)OC)cc1`, the melting point fell in the range of 163 to 167 °C.
With `O=S(=O)(c1ccccc1)c1ccc2c(c1)O[C@H](CO)CO2` the figure was 112 to 114 °C; with `CC1Cc2c(c3ccccc3n2C(=O)c2ccccc2)C(C)C1C(=O)O` (configuration not stated), 142 to 145 °C.
Compound `Cc1nn(CC(=O)c2ccc(Cl)cc2)c(=O)n1-c1ccc(N2CCN(c3ccc(O)cc3)CC2)cc1` had a melting point of 252 °C.
As for `CCCCCNCc1ccc(-c2ccccc2S(=O)(=O)NC(C)(C)C)cc1`, the melting point was 69 to 70 °C.
With `CCCCc1nn(-c2cc(NC(=O)CC)ccc2Cl)c(=O)n1Cc1ccc(-c2ccccc2S(=O)(=O)NC(=O)c2c(F)cccc2Cl)cc1F` the figure was 200 to 203 °C; with `N#Cc1ccc2c(c1)Sc1ccc(Cl)cc1C=C2`, 207 to 210 °C; with `COP(=O)(Cc1nc2cc3c(cc2nc1C(=O)OC(C)(C)C)OC(C)(C)O3)OC`, 86.3 to 87.9 °C.
Regarding `COc1nc(O)nc(C)c1Cl`, the melting point worked out at 235 °C.
With `O=[N+]([O-])c1nc(NCCO)ccc1NCCO` the figure was 158 °C; with `O=C(c1ccc(F)cc1)C1CCN(CCN(C(=O)c2ccc([N+](=O)[O-])cc2)c2ccccc2)CC1`, 178 to 180 °C; with `CC1(C)OC(=O)Nc2ccc(-c3ccc(C#N)s3)cc21`, 264 to 266 °C.
With `CC[C@@H](c1ccccc1)N(Cc1ccc(C(=O)OC)c(F)c1)S(=O)(=O)c1ccc(Cl)cc1` the figure was 96 to 98 °C.
The figure for `CC1(C)OC(c2ccc(S(C)(=O)=O)cc2)=C(c2cc3ccccc3s2)C1=O` is 204 to 206 °C.
As to `CCN(CCO[N+](=O)[O-])C(=O)COC(=O)[C@@H](C)c1ccc2cc(OC)ccc2c1`, the melting point is 60 to 61 °C.
With `COC(=O)c1ccc(Cc2cccc3ccc(C(N)=O)cc23)c(OC)c1` the figure was 215 to 216 °C.
The figure for `N#CC1(c2cccs2)CCC(=O)CC1` is 118 to 119 °C; for `COc1cc(N)c(Cl)cc1C(=O)NC[C@H]1CCN(CCCCCC(=O)c2ccccc2)C[C@H]1OC` (relative stereo) it is 99 to 101 °C.
The compound `O=C(O)c1cn(-c2cccc(OC(F)F)c2)cn1` gave a melting point of 190 to 191 °C.
In the case of `COCCNS(=O)(=O)c1cccc(Nc2nccc(-c3sc(C)nc3C)n2)c1`, the melting point was in the range of 197 to 198 °C.
`CN1CCN(Cc2cccc(-c3cc4c(Nc5ccc6[nH]ccc6c5)c(C#N)cnc4s3)c2)CC1` showed a melting point of 128 to 130 °C.
The figure for `CC(=O)NCCn1nnnc1Sc1ccc([N+](=O)[O-])cc1[N+](=O)[O-]` is 197 to 198 °C.
With `CCS(=O)(=O)N(C)C1CC(C)(C)Oc2ccc(OCc3ccccc3)cc21` (configuration not stated) the figure was 91 to 93 °C; with `CCOC(=O)C1=C(C)NC2=C(C(=O)OC2)C1c1cccc2ncc(-c3ccccc3)cc12` (configuration not stated), 257 to 260 °C.
`O=C1NC(=O)c2ccc(Br)cc2/C1=C/NCc1cccnc1` came in with a melting point of 299 to 300 °C.
The figure for `COc1ccc(C(=O)Nc2nc3ccc(N(C)C)cc3c(N=Cc3ccccc3)c2C#N)cc1` is 185 °C; for `CN(C)Cc1cc2ccc(C(=O)NNC(=O)CSCCOc3ccccc3)cc2o1` it is 162 to 164 °C; for `CC1C(=O)Nc2c(C(=O)c3ccccc3)cccc21` (configuration not stated) it is 125 to 127 °C.
Consider `CC(C)(C)NC(=O)C1CCN(C(=O)CCl)CC1`, for which the melting point lay in the range of 140 to 142 °C.
With `Cc1cc(SCc2ccc(OCc3ccc(C(C)(C)C)cc3)cc2)ccc1OCC(=O)O` the figure was 135 to 137 °C.
The figure for `CCCCOc1ccc(SCCSc2ccc(OCCCC)cc2)cc1` is 102 to 103 °C; for `Cc1cccc(NC(=O)NC2N=C(C3CCCC3)c3ccccc3N(CC(=O)N3CC4CCC(CC4)C3)C2=O)c1` (racemic) it is 132 to 134 °C; for `O=C1COC2(CCN(CCc3c[nH]c4ccccc34)CC2)CN1` it is 48 to 50 °C.
Consider `Cc1ccccc1S(=O)(=O)NC1CCc2sccc2C1` (configuration not stated), for which the melting point is 130 to 132 °C.
The figure for `CCOC(=O)N1CCC(=C2c3ccc(Cl)cc3C=Cc3cccnc32)CC1` is 155 to 156 °C; for `Nc1cc(=O)n(Cc2cc(Cl)cc(Cl)c2)[nH]1` it is 175 to 176 °C; for `Nc1nc(-c2cc(Cl)ccc2Cl)nc(N2CCS(=O)CC2)n1` it is 267 to 269 °C.
With `CCOC1CC2(C)C(CCC3C4CC=C(C(C)=O)C4(C)CC(=O)C32)CC1O` (configuration not stated) the figure was 89 to 91 °C; with `O=[N+]([O-])c1cccc(-c2ccnc3[nH]c4ccccc4c23)c1`, more than 220 °C.
Regarding `Cc1ccc(-c2cc(C)c3c(c2)C(C)CC(=O)N3)c(C)n1` (configuration not stated), the melting point lay within 146 to 148 °C.
The figure for `N#CCOc1ccc2occ(CC#N)c2c1` is 86 to 87 °C.
In turn, `CCCc1nnc2c(=O)n(C)c3ccc(OC)cc3n12` displayed a melting point of 219 to 220 °C.
`O=S(=O)(N1CCCC1)N1CCN(c2ccnc(CO)n2)CC1` had a melting point of 128 to 131 °C.
With `CSC1=NC(C)C(c2ccccc2)=NN1` (configuration not stated) the figure was 159 to 160 °C; with `NC(=O)C1CCN(Cc2ccc(-c3cc4ncnc(Nc5ccc6[nH]ccc6c5)c4s3)cc2)CC1`, 198 to 205 °C.
`CCOc1cc(F)ccc1N1CCN(Cc2ccc(CNC(C)=O)cc2)CC1` had a melting point of 108 to 109 °C.
The figure for `CCCCCCCCC(CCCCCCCC)n1c2ccsc2c2sccc21` is 60 °C; for `CC(=O)NC(=O)c1cccc(-c2noc(-c3ccccc3F)n2)c1` it is 119 to 120 °C.
`CC(=O)Oc1c(C)c(C)c(O)c(C(C)=NOCCOc2ccc(CC3SC(=O)NC3=O)cc2)c1C` (configuration not stated) came in with a melting point of 60 to 75 °C.
Compound `COc1ccccc1OC1CCN(C(=O)Cl)C1` (configuration not stated) registered a melting point of 80 to 81 °C.
`Cc1nc(N2CCN(Cc3nc(C)n(-c4ccccc4)n3)C2=O)sc1C(=O)NCc1ccccc1`: the melting point was in the range of 139 to 141 °C.
The figure for `CCCCCNS(=O)(=O)NC(=O)OCc1ccccc1` is 142 to 143 °C; for `CCOC(=O)N1CCN(c2nc(NC3CC3)ccc2F)CC1` it is 68 to 70 °C.
The figure for `FC(F)(F)COc1nc(-c2ccccc2)c2cc(Cl)ccc2n1` is 185 to 186 °C; for `Cc1ccc(Cl)cc1-n1c(CF)nc2ccc(N)cc2c1=O` it is 214 to 216 °C.
With `C#Cc1cc(-c2cccs2)c(OC)cc1OC` the figure was 141 to 142 °C; with `Fc1ccc(-c2cncc(CN3CC=C(c4ccccc4)CC3)c2)cc1`, 128 to 129 °C.
Take `COC(=O)CCCN1CCC(CNC(=O)[C@@H]2CCCN2S(=O)(=O)c2ccc(Cl)c(COc3cccc4c(-n5ccnc5)cc(C)nc34)c2Cl)CC1`: the melting point was found to be 98 °C.
With `CC(=O)N1CCc2ccc(C(=O)CCCC3CCN(Cc4ccc(F)cc4)CC3)cc2CC1` the figure was 92 to 94 °C.
The compound `CCOC(=O)CCCNC(=O)c1n[nH]cc1NC(=O)c1ccccn1` registered a melting point of 179 to 180 °C.
With `Cc1noc(C)c1Cn1nnnc1-c1cccc(Cl)c1Cl` the figure was 176 to 178 °C.
With `COc1nc(-n2cc(C(=O)O)c(=O)c3cc(F)c(F)c(Cl)c32)c(F)cc1F` the figure was 205 to 210 °C; with `CC(C)OC(=O)N1CCC(c2nc3cc(-c4ccc(C(F)(F)F)cc4)ccc3o2)CC1`, 123 to 126 °C; with `CC(C)c1nn(Cc2ccc(Cl)cc2Cl)cc1CCCOc1cc(CCC(=O)O)n(-c2ccccc2)n1`, 105 to 107 °C.
With `NCC1CCc2[nH]c3ccc(F)c(Cl)c3c2C1` (configuration not stated) the figure was 179 to 180 °C; with `CS(=O)(=O)Nc1cccc(Nc2nc(NCCc3ccccn3)c3nc[nH]c3n2)c1`, 199 to 202 °C; with `CCOC(=O)c1cn(CCO)c2cc(Cl)c(F)cc2c1=O`, 202 °C.
`CC(=O)OC1CSC(Oc2ccc(S(C)(=O)=O)cc2)C(OC(C)=O)C1OC(C)=O` (configuration not stated) came in with a melting point of 168 °C.
In turn, `CCOC(=O)C1=C(C)NC(C)=C(C(=O)OC)C1c1cccc(C#N)c1` (configuration not stated) showed a melting point of 150 °C.
With `CCOc1sc(C)nc1S(=O)(=O)NC(=O)Nc1nc(OC)cc(OC)n1` the figure was 140 to 143 °C.
